# Data reported in ChEMBL document CHEMBL1156377, “New cytotoxic N-methylated beta-carboline alkaloids from the marine ascidian Eudistoma gilboverde” (J Nat Prod, 2001).
# Assays:
# Format in all cases: functional, cell-based
# [1] = Cytotoxicity against human LOX cells after 2 days; conditions: 48 h
# OVCAR-3 = assay: Cytotoxicity against human OVCAR-3 cells after 2 days; conditions: OVCAR-3, 48 h
# COLO 205 = assay: Cytotoxicity against human COLO205 cells after 2 days; conditions: COLO 205, 48 h
# MOLT-4 = assay: Cytotoxicity against human MOLT4 cells after 2 days; conditions: MOLT-4, 48 h
SMILES,IC50 [1] [µg/mL],IC50 (OVCAR-3) [µg/mL],IC50 (COLO 205) [µg/mL],IC50 (MOLT-4) [µg/mL]
CSC[C@H](c1nccc2c1[nH]c1ccc(O)c(Br)c12)N(C)C,0.41,0.98,0.42,0.57
C[n+]1ccc2c(c1)[nH]c1cc(Br)c(O)cc12.[Cl-],15.1,20,15.1,17.5
C[n+]1ccc2c(c1)[nH]c1ccc(O)c(Br)c12.[Cl-],15,20,19.1,16.6
